Measured values reported in US11186617B2, “Epitope” (HOYU CO., LTD., priority 2017, dated 2021).

Legend:
[1] = tested on: IgE antibody from the patient; experiment: Epitope mapping (3): alanine scanning ELISA, patient serum; assay type: binding, human; conditions: alanine-substituted peptides; serum from patient 1; FIG. 3
Procedure: (§1) The amino acid sequence of SEQ ID NO: 22 and the amino acid sequence of SEQ ID NO: 29 identified in the above-mentioned (B) were subjected to a technique referred to as alanine scanning (Non Patent Literature 1). Specifically, a library of peptide fragments was prepared by a technique similar to that described above in (B), in which the peptide fragments were produced by substituting one amino acid at a time with alanine in each amino acid sequence of […], starting from the amino acid at an amino terminal side. Then, a technique similar to that described above in (B) was used to measure whether each peptide fragment was bound by the IgE antibody in the serum from a patient and a healthy subject, or not. When alanine substitution of an amino acid at a certain position led to loss or reduction of binding activity to the IgE antibody from the patient and development of binding activity to the IgE antibody from the healthy subject, the amino acid was determined to be an amino acid important for expression of inherent antigenicity or an amino acid affecting expression of inherent antigenicity. […] A common sequence important for expression of inherent antigenicity was discovered by this analysis.
(§2) The result of alanine scanning performed on the amino acid sequence of SEQ ID NO: 22 and the result of alanine scanning performed on the amino acid sequence of SEQ ID NO: 29 are shown in FIG. 3, respectively.

[2] = tested on: IgE antibody from the healthy subject; experiment: Epitope mapping (3): alanine scanning ELISA, healthy subject serum; assay type: binding, human; conditions: alanine-substituted peptides; sera from healthy individuals 1 and 2; FIG. 3
Procedure: as §1, §2

[3] = tested on: anti-human IgE antibody as a secondary antibody; experiment: Epitope mapping (3): alanine scanning ELISA, secondary antibody used alone; assay type: binding; conditions: alanine-substituted peptides, FIG. 3
Description: FIG. 3 is a diagram showing the result of investigation of positions important for exerting antigenicity in SEQ ID NOs: 22 and 29 by an alanine scanning technique. The number on the horizontal axis denotes a value of coloration intensity at 450 nm measured by an absorption spectrometer (Abs.). In this figure, a double wavy line denotes that a value is not shown, P1 denotes that the serum from patient 1 was used, N1 and N2 denote that the sera from healthy individuals 1 and 2 were used, and 2nd denotes that an anti-human IgE antibody as a secondary antibody was used alone.
as §1, §2

[4] = tested on: IgE antibody in the serum from a WDEIA patient; experiment: Epitope mapping (1): peptide array, chemiluminescent measurement of IgE binding using human serum; conditions: 15-amino-acid peptides on array; 2% serum; sera from WDEIA patients 1 to 3 vs healthy individuals 1 and 2; FIG. 1
Procedure: Epitope mapping was performed by using a library of overlapping peptides (15 amino acids in length) corresponding to the full-length amino acid sequence of ω-5 gliadin from bread wheat (SEQ ID NO: 51).
Each synthesized peptide was shifted by 10 amino acids. In other words, each peptide overlaps with the previous peptide and the next peptide, each by 5 amino acids.
Intavis CelluSpots™ technique was used for preparing a peptide array. Specifically, the peptide array was prepared by the following procedures: (1) synthesizing a target peptide on an amino-modified cellulose disk by using an automated synthesizer (MultiPep RS from Intavis), (2) dissolving said amino-modified cellulose disk to obtain a solution of a peptide bound to cellulose, and (3) spotting said peptide bound to cellulose on a coated slide glass. The detail of each procedure is as follows.
Said peptide array was used to measure whether each peptide fragment is bound by an IgE antibody in the serum from a WDEIA patient due to an antigen-antibody reaction, or not. This measurement was performed in accordance with the following procedures. […]
(7) Chemiluminescence of the peptide that was treated as described in the above (1) to (6) was measured by using Amersham Imager 600.

| binding activity to the IgE antibody from the patient (absorbance at 450 nm) [1] | binding of IgE antibody to peptide spot (chemiluminescence) [4] | Substance | binding activity to the IgE antibody from the healthy subject (absorbance at 450 nm) [2] | binding activity to the anti-human IgE antibody as the secondary antibody (absorbance at 450 nm) [3] |
| --- | --- | --- | --- | --- |
| slightly reduced binding activity |  | SEQ ID NO: 35: amino acid at position 1 in SEQ ID NO: 22 substituted with alanine (QQFPQAEFPQQQQFP; modified epitope) | developed a relatively low level of binding activity | developed a relatively low level of binding activity |
|  | bound, in a manner specific to a patient | SEQ ID NO: 13: peptide of amino acids 161 to 175 of the full-length ω-5 gliadin from bread wheat (SEQ ID NO: 51) (PQQQPPQQHQFPQQQ; epitope) |  |  |
|  | bound, in a manner specific to a patient | SEQ ID NO: 6: peptide of amino acids 221 to 235 of the full-length ω-5 gliadin from bread wheat (SEQ ID NO: 51) (QQFPQQEFPQQQQFP; epitope) |  |  |
